Data as given in patent US9023821B2, “Use of MicroRNA for treating diseases associated with a dysfunction of the cilia in multiciliated epithelial cells” (Centre National de la Recherche Scientifique, priority 2009, dated 2015).

Experiments:
[1] = system: human airway epithelial cells (HAECs); assay: High-throughput sequencing (HTS) of miRNAs at four stages of differentiation of HAECs; conditions: for Modulation (ratio of the level of intensity of expression in log2 in two stages of differentiation) measured by high-throughput sequencing, D7 − D0 / Modulation (ratio of the level of intensity of expression in log2 in two stages of differentiation) measured by high-throughput sequencing, FC − D7 / Modulation (ratio of the level of intensity of expression in log2 in two stages of differentiation) measured by high-throughput sequencing, WD − D0 / Modulation (ratio of the level of intensity of expression in log2 in two stages of differentiation) measured by high-throughput sequencing, WD − FC / Level of intensity of expression in log2 measured by high-throughput sequencing, D0 / Level of intensity of expression in log2 measured by high-throughput sequencing, D7 / Level of intensity of expression in log2 measured by high-throughput sequencing, FC / Level of intensity of expression in log2 measured by high-throughput sequencing, WD: Table VI; for Level of intensity of expression in log2 At the differentiated stage (WD) measured in HTS: healthy human airway epithelial tissue; for Level of intensity of expression in log2 measured by high-throughput sequencing, D0: stage D0; for Level of intensity of expression in log2 measured by high-throughput sequencing, D7: stage D7; for Level of intensity of expression in log2 measured by high-throughput sequencing, FC: stage FC; for Level of intensity of expression in log2 At the differentiated stage (WD) measured in HTS / Level of intensity of expression in log2 measured by high-throughput sequencing, WD: stage WD
In short: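 ALI cultures sampled at day 0, day 7, first-cilia stage (~14 d) and full differentiation (~21 d). Trizol lysis, column purification retaining small RNAs. Adaptor ligation, RT at 42° C for 30 min, PCR, gel selection of ~105-150 base products.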

[2] = system: basal cells and pyramidal cells of the airway epithelium; assay: miRNA expression in sorted basal cells versus pyramidal cells (ciliated + secretory), HTS and Agilent chips; set-up: species or system human; conditions: for Modulation of expression of the miRNAs in pyramidal cells (323(−)) relative to basal cells 323(+): HTS and Agilent chips; for Intensity of the level of expression in log2 in pyramidal cells (323(−)): pyramidal cells (ciliated + secretory)
In short: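 FACS on CD151 and tissue factor: double-positive = basal, double-negative = ciliated + mucus cells; DAPI, doublets, aggregates excluded; sort at 5000 events/s. Purity checked by cytometry/immunocytochemistry. miRNA by Agilent array or HTS on total RNA. Source: nasal polyps/conchae, 3 donors.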

[3] = system: human airway epithelial cells (HAECs); assay: Agilent miRNA chips, miRNA expression at four stages of differentiation of HAECs; conditions: for Modulation (ratio of the level of intensity of expression in log2 in two stages of differentiation) measured with the Agilent chips, D7 − D0 / Modulation (ratio of the level of intensity of expression in log2 in two stages of differentiation) measured with the Agilent chips, FC − D7 / Modulation (ratio of the level of intensity of expression in log2 in two stages of differentiation) measured with the Agilent chips, WD − D0 / Modulation (ratio of the level of intensity of expression in log2 in two stages of differentiation) measured with the Agilent chips, WD − FC / Level of intensity of expression in log2 measured with the Agilent chips, D0 / Level of intensity of expression in log2 measured with the Agilent chips, D7 / Level of intensity of expression in log2 measured with the Agilent chips, FC / Level of intensity of expression in log2 measured with the Agilent chips, WD: Table VI; for Modulation (ratio of the level of intensity of expression in log2 at two stages of differentiation), FC − D7 / Modulation (ratio of the level of intensity of expression in log2 at two stages of differentiation), WD − FC: Agilent miRNA chips, Table V; for Level of intensity of expression in log2 measured with the Agilent chips, D0: stage D0; for Level of intensity of expression in log2 measured with the Agilent chips, D7: stage D7; for Level of intensity of expression in log2 measured with the Agilent chips, FC: stage FC; for Level of intensity of expression in log2 measured with the Agilent chips, WD: stage WD
In short: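 Microarray v2 (866 human + 89 viral miRNAs; miRBase v.12.0). Input: RNA from the same donors as sequencing. Labelling/hybridization per kit protocol. Profiles cross-checked vs sequencing.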

| Substance | Modulation (ratio of the level of intensity of expression in log2 in two stages of differentiation) measured by high-throughput sequencing, D7 − D0 [1] | Modulation (ratio of the level of intensity of expression in log2 in two stages of differentiation) measured by high-throughput sequencing, FC − D7 [1] | Modulation (ratio of the level of intensity of expression in log2 in two stages of differentiation) measured by high-throughput sequencing, WD − D0 [1] | Modulation (ratio of the level of intensity of expression in log2 in two stages of differentiation) measured by high-throughput sequencing, WD − FC [1] | Level of intensity of expression in log2 At the differentiated stage (WD) measured in HTS [1] | Level of intensity of expression in log2 measured by high-throughput sequencing, D0 [1] | Level of intensity of expression in log2 measured by high-throughput sequencing, D7 [1] | Level of intensity of expression in log2 measured by high-throughput sequencing, FC [1] | Level of intensity of expression in log2 measured by high-throughput sequencing, WD [1] | Modulation of expression of the miRNAs in pyramidal cells (323(−)) relative to basal cells 323(+) [2] | Intensity of the level of expression in log2 in basal cells (323(+)) [2] | Intensity of the level of expression in log2 in pyramidal cells (323(−)) [2] | Modulation (ratio of the level of intensity of expression in log2 in two stages of differentiation) measured with the Agilent chips, D7 − D0 [3] | Modulation (ratio of the level of intensity of expression in log2 at two stages of differentiation), FC − D7 [3] | Modulation (ratio of the level of intensity of expression in log2 in two stages of differentiation) measured with the Agilent chips, FC − D7 [3] | Modulation (ratio of the level of intensity of expression in log2 in two stages of differentiation) measured with the Agilent chips, WD − D0 [3] | Modulation (ratio of the level of intensity of expression in log2 at two stages of differentiation), WD − FC [3] | Modulation (ratio of the level of intensity of expression in log2 in two stages of differentiation) measured with the Agilent chips, WD − FC [3] | Level of intensity of expression in log2 measured with the Agilent chips, D0 [3] | Level of intensity of expression in log2 measured with the Agilent chips, D7 [3] | further results |
| --- | --- | --- | --- | --- | --- | --- | --- | --- | --- | --- | --- | --- | --- | --- | --- | --- | --- | --- | --- | --- | --- |
| hsa-miR-200b: human miRNA, SEQ ID No. 17 (UAAUACUGCCUGGUAAUGAUGA; expressed or natural sequence; listed as Homo sapiens) | 0.76 log2 | 0.56 log2 | 2.36 log2 | 1.03 log2 | 10.64 log2 | 8.60 log2 | 9.37 log2 | 9.93 log2 | 10.96 log2 | −0.15 | 9.99 log2 | 9.84 log2 | 2.01 log2 | −0.07 log2 | −0.07 log2 | 2.11 log2 | 0.17 log2 | 0.17 log2 | 9.93 log2 | 11.94 log2 | Level of intensity of expression in log2 measured with the Agilent chips, FC [3]: 11.87 log2; Level of intensity of expression in log2 measured with the Agilent chips, WD [3]: 12.04 log2 |
| hsa-miR-939: human miRNA, SEQ ID No. 50 (UGGGGAGCUGAGGCUCUGGGGGUG; expressed or natural sequence; listed as Homo sapiens) | 0.13 log2 | −0.13 log2 | 0.00 log2 | 0.00 log2 | 5.43 log2 | 0.01 log2 | 0.15 log2 | 0.01 log2 | 0.01 log2 | 1.28 | 4.81 log2 | 6.08 log2 | 1.40 log2 | −0.63 log2 | −0.63 log2 | 0.70 log2 | −0.07 log2 | −0.07 log2 | 6.64 log2 | 8.04 log2 | Level of intensity of expression in log2 measured with the Agilent chips, FC [3]: 7.41 log2; Level of intensity of expression in log2 measured with the Agilent chips, WD [3]: 7.34 log2 |
| hsa-miR-34c-5p: human miRNA, SEQ ID No. 40 (AGGCAGUGUAGUUAGCUGAUUGC; expressed or natural sequence; listed as Homo sapiens) | 1.33 log2 | 4.02 log2 | 6.41 log2 | 1.06 log2 | 0.01 log2 | 7.88 log2 | 9.21 log2 | 13.23 log2 | 14.29 log2 | 5.74 | 4.75 log2 | 10.49 log2 | 2.35 log2 | 4.27 log2 | 4.27 log2 | 7.44 log2 | 0.82 log2 | 0.82 log2 | 3.94 log2 | 6.29 log2 | Modulation (ratio of the level of intensity of expression in log2 in two stages of differentiation), D7 − D0 ([1]; HTS): 1.33 log2; Modulation (ratio of the level of intensity of expression in log2 in two stages of differentiation), FC − D7 ([1]; HTS): 4.02 log2; Modulation (ratio of the level of intensity of expression in log2 in two stages of differentiation), WD − FC ([1]; HTS): 1.06 log2; Abundance (%), D0 ([1]; HTS, ALI-D0): 0.05%; Abundance (%), D7 ([1]; HTS, ALI-D7): 0.13%; Abundance (%), FC ([1]; HTS, ALI-FC): 2.05%; Abundance (%), WD ([1]; HTS, ALI-WD): 3.23%; Level of intensity of expression in log2 measured with the Agilent chips, FC [3]: 10.56 log2; Level of intensity of expression in log2 measured with the Agilent chips, WD [3]: 11.39 log2 |
| hsa-miR-27b: human miRNA, SEQ ID No. 30 (UUCACAGUGGCUAAGUUCUGC; expressed or natural sequence; listed as Homo sapiens) | 0.64 log2 | −0.69 log2 | −0.11 log2 | −0.06 log2 | 14.81 log2 | 6.92 log2 | 7.57 log2 | 6.88 log2 | 6.81 log2 | −3.56 | 9.77 log2 | 6.21 log2 | 1.77 log2 | −0.47 log2 | −0.47 log2 | 1.36 log2 | 0.05 log2 | 0.05 log2 | 9.26 log2 | 11.03 log2 | Level of intensity of expression in log2 measured with the Agilent chips, FC [3]: 10.57 log2; Level of intensity of expression in log2 measured with the Agilent chips, WD [3]: 10.62 log2 |
